Test results: patent US20160324153A1, “HERBICIDAL MIXTURE COMPRISING IMAZETHAPYR AND CYCLOXYDIM” (BASF AGROCHEMICAL PRODUCTS, priority 2014, published 2016)

Columns and labels:
Type in all cases: in vivo
[1] = tested on: ECHCO (Echinochloa colonum); assay: Post emergence treatment, herbicidal activity against ECHCO
From the text: (§1) Synergism can be described as an interaction where the combined effect of two or more compounds is greater than the sum of the individual effects of each of the compounds. The presence of a synergistic effect in terms of percent control, between two mixing partners (X and Y) can be calculated using the Colby equation (Colby, S. R., 1967, Calculating Synergistic and Antagonistic Responses in Herbicide Combinations, Weeds, 15, 21-22): When the observed combined control effect is greater than the expected (calculated) combined control effect (E), then the combined effect is synergistic. […] However, the weed control afforded by the compounds, mixtures or compositions is not limited to these species. The analysis of synergism or antagonism between the mixtures or compositions was determined using Colby's equation. Analogously, the Colby's equation can be used to determine synergism of 3-way and higher mixtures. Post Emergence Treatment by the Mixture of Imazethapyr+Cycloxydim Post Emergence Treatment by the Mixture of (Imazethapyr+Imazamox)+Cycloxydim

LEFFA (Leptochloa fusca) = assay: Post emergence treatment, herbicidal activity against LEFFA; conditions: Example 1, post emergence
From the text: as §1, with “Imazethapyr+Cycloxydim” for “Imazethapyr+Cycloxydim Post Emergence Treatment by the Mixture of (Imazethapyr+Imazamox)+Cycloxydim”

ORYSA (Orysa sativa) = assay: Post emergence treatment, herbicidal activity against ORYSA
From the text: as §1

[2] = tested on: PHACA (Phalaris canariensis); assay: Post emergence treatment, herbicidal activity against PHACA; conditions: Example 2, post emergence
From the text: as §1, with “of” for “of Imazethapyr+Cycloxydim Post Emergence Treatment by the Mixture of”

[3] = tested on: BRAPL (Brachiaria plantaginea); assay: Post emergence treatment, herbicidal activity against BRAPL; conditions: Example 2, post emergence; Cycloxydim 3 g ai/ha
From the text: as §1, with “of” for “of Imazethapyr+Cycloxydim Post Emergence Treatment by the Mixture of”

[4] = Example 1, post emergence, Cycloxydim 6 g ai/ha
[5] = Example 1, post emergence, Imazethapyr 7.5 g ai/ha

Row | SMILES | Herbicidal activity against ECHCO, Found [1, 4] | Herbicidal activity against ECHCO, Found ([1]; Example 2, post emergence, Cycloxydim 3 g ai/ha) | Herbicidal activity against LEFFA, Found (LEFFA (Leptochloa fusca); Cycloxydim 6 g ai/ha) | Herbicidal activity against ORYSA, Found (ORYSA (Orysa sativa); [4]) | Herbicidal activity against ORYSA, Found (ORYSA (Orysa sativa); Example 2, post emergence, Cycloxydim 6 g ai/ha) | Herbicidal activity against PHACA, Found ([2]; the 3rd table, Cycloxydim 3 g ai/ha) | Herbicidal activity against PHACA, Found ([2]; the 5th table, Cycloxydim 3 g ai/ha) | Herbicidal activity against PHACA, Found ([2]; Cycloxydim 6 g ai/ha) | Herbicidal activity against BRAPL, Found [3] | Herbicidal activity against ECHCO, Found [1, 5] | Herbicidal activity against LEFFA, Found (LEFFA (Leptochloa fusca); Imazethapyr 7.5 g ai/ha) | Herbicidal activity against ORYSA, Found (ORYSA (Orysa sativa); [5])
1 | CCCC(=NOCC)C1=C(O)CC(C2CCCSC2)CC1=O (racemic) [Cycloxydim, (5RS)-2-[(EZ)-1-(Ethoxyimino)butyl]-3-hydroxy-5-[(3RS)-thian-3-yl]cyclohex-2-en-1-one] | 50 | 0 | 40 | 20 | 20 | 0 | 0 | 60 | 0 |  |  | 
2 | CCc1cnc(C2=NC(C)(C(C)C)C(=O)N2)c(C(=O)O)c1 (racemic) [Imazethapyr, 5-ethyl-2-[(RS)-4-isopropyl-4-methyl-5-oxo-2-imidazolin-2-yl]nicotinic acid] |  |  |  |  |  |  |  |  |  | 85 | 55 | 50
